The values below come from PubChem BioAssay AID1259407 (Chemical Carcinogenesis Research Information System (CCRIS), 2018).

Each structure is given as a SMILES string. The source made the active and inactive calls. The rule behind the calls is not given here.

For the data set, the system named is CCRIS mutagenicity, Ames/micronucleus/aberration tests. The data set can be described thus: CCRIS mutagenicity studies.
[1] abbreviates: Test System: AMES SALMONELLA TYPHIMURIUM, Strain/Indicator: TA98, Metabolic Activation: NONE, Method: STANDARD PLATE.
[2] abbreviates: Test System: AMES SALMONELLA TYPHIMURIUM, Strain/Indicator: TA98, Metabolic Activation: RAT, LIVER, S-9, AROCLOR 1254, Method: STANDARD PLATE.
The mark [3] stands for this setting: Test System: AMES SALMONELLA TYPHIMURIUM, Strain/Indicator: TA100, Metabolic Activation: NONE, Method: STANDARD PLATE.
The mark [4] stands for this setting: Test System: AMES SALMONELLA TYPHIMURIUM, Strain/Indicator: TA100, Metabolic Activation: RAT, LIVER, S-9, AROCLOR 1254, Method: STANDARD PLATE.
The mark [5] stands for this setting: Test System: E. COLI, Strain/Indicator: WP2 UVRA, Metabolic Activation: NONE, Method: STANDARD PLATE.

`CC(C)c1c(C(=O)Nc2ccccc2)c(-c2ccccc2)c(-c2ccc(F)cc2)n1CC[C@@H](O)C[C@@H](O)CC(=O)O`: the mutagenic call reads like this: under setting [1], “inactive; negative”; under setting [2], “inactive; negative”; under setting [3], “inactive; negative”; under setting [4], “inactive; negative”; (Test System: AMES SALMONELLA TYPHIMURIUM, Strain/Indicator: TA1535, Metabolic Activation: NONE, Method: STANDARD PLATE) “inactive; negative”; (Test System: AMES SALMONELLA TYPHIMURIUM, Strain/Indicator: TA1535, Metabolic Activation: RAT, LIVER, S-9, AROCLOR 1254, Method: STANDARD PLATE) “inactive; negative”. Besides, the mutagenic call is, setting by setting: (Test System: AMES SALMONELLA TYPHIMURIUM, Strain/Indicator: TA1537, Metabolic Activation: NONE, Method: STANDARD PLATE) “inactive; negative”; (Test System: AMES SALMONELLA TYPHIMURIUM, Strain/Indicator: TA1537, Metabolic Activation: RAT, LIVER, S-9, AROCLOR 1254, Method: STANDARD PLATE) “inactive; negative”; (Test System: AMES SALMONELLA TYPHIMURIUM, Strain/Indicator: TA1538, Metabolic Activation: NONE, Method: STANDARD PLATE) “inactive; negative”; (Test System: AMES SALMONELLA TYPHIMURIUM, Strain/Indicator: TA1538, Metabolic Activation: RAT, LIVER, S-9, AROCLOR 1254, Method: STANDARD PLATE) “inactive; negative”; (Test System: CHINESE HAMSTER V-79, Strain/Indicator: V-79 (HGPRT)/6-THIOGUANINE, Metabolic Activation: NONE) “inactive; negative”; (Test System: CHINESE HAMSTER V-79, Strain/Indicator: V-79 (HGPRT)/6-THIOGUANINE, Metabolic Activation: RAT, LIVER, S-9, AROCLOR 1254) “inactive; negative”. Also, the mutagenic call under setting [5] is “inactive; negative” and the mutagenic call (Test System: E. COLI, Strain/Indicator: WP2 UVRA, Metabolic Activation: RAT, LIVER, S-9, AROCLOR 1254, Method: STANDARD PLATE) was “inactive; negative”.

For `CC/C(=C(/CC)c1ccc(OP(=O)(O)O)cc1)c1ccc(OP(=O)(O)O)cc1`, the mutagenic call was “inactive; negative” under setting [1]; “inactive; negative” under setting [3]; “inactive; negative” (Test System: E. COLI, Strain/Indicator: WP2 (HCR), Metabolic Activation: NONE, Method: STANDARD PLATE).

On to `BrCC(Br)CBr`, for which the mutagenic call is “active; positive” (Test System: AMES SALMONELLA TYPHIMURIUM, Strain/Indicator: TA100, Metabolic Activation: RAT, LIVER, MICROSOMES, PHENOBARBITAL, NADPH COFACTORS, Method: STANDARD PLATE) and “inactive; negative” (Test System: AMES SALMONELLA TYPHIMURIUM, Strain/Indicator: TA100, Metabolic Activation: RAT, LIVER, MICROSOMES, PHENOBARBITAL, Method: STANDARD PLATE).

As for `C=C1CC[C@H]2[C@@H](c3c(C)c(O)c4c(c31)C(=O)[C@@H](C)C4)C2(C)C`, the mutagenic call is, setting by setting: under setting [1], “inactive; negative”; (Test System: AMES SALMONELLA TYPHIMURIUM, Strain/Indicator: TA98, Method: STANDARD PLATE) “inactive; negative”; under setting [3], “inactive; negative”; (Test System: AMES SALMONELLA TYPHIMURIUM, Strain/Indicator: TA100, Method: STANDARD PLATE) “inactive; negative”.

Take `CCc1ccccc1NC(=O)c1csc([N+](=O)[O-])c1`: the mutagenic call by setting is: under setting [1], “active; positive”; under setting [3], “active; positive”.

As to `CN(CC(N)=O)C(=O)N(CCCl)N=O`, the mutagenic call by setting is: (Test System: Mouse lymphoma, Strain/Indicator: L5178Y (tk+/tk-), Metabolic Activation: None, Method: Suspension/plate) “active; positive”; (Test System: Mouse lymphoma, Strain/Indicator: L5178Y (tk+/tk-), Metabolic Activation: Rat, Liver, S-9, Aroclor 1254, Method: Suspension/plate) “active; positive”.

For the compound `CCCCOCCO`, the mutagenic call is, setting by setting: (Test System: AMES SALMONELLA TYPHIMURIUM, Strain/Indicator: TA97, Metabolic Activation: HAMSTER, LIVER, S-9, AROCLOR 1254 (10 OR 30%), Method: PREINCUBATION) “inactive; negative”; (Test System: AMES SALMONELLA TYPHIMURIUM, Strain/Indicator: TA97, Metabolic Activation: NONE, Method: PREINCUBATION) “inactive; negative”; (Test System: AMES SALMONELLA TYPHIMURIUM, Strain/Indicator: TA97, Metabolic Activation: RAT, LIVER, S-9, AROCLOR 1254 (5, 10 OR 30%), Method: PREINCUBATION) “inactive; negative”; (Test System: AMES SALMONELLA TYPHIMURIUM, Strain/Indicator: TA97A, Metabolic Activation: RAT, LIVER, S-9, AROCLOR 1254 (2.5 OR 10%), Method: STANDARD PLATE) “inactive; negative”; (Test System: AMES SALMONELLA TYPHIMURIUM, Strain/Indicator: TA97A, Metabolic Activation: RAT, LIVER, S-9, AROCLOR 1254, Method: STANDARD PLATE) “active; positive”; (Test System: AMES SALMONELLA TYPHIMURIUM, Strain/Indicator: TA98, Metabolic Activation: HAMSTER, LIVER, S-9, AROCLOR 1254 (10 OR 30%), Method: PREINCUBATION) “inactive; negative”. Also, the mutagenic call runs as follows: (Test System: AMES SALMONELLA TYPHIMURIUM, Strain/Indicator: TA98, Metabolic Activation: NONE, Method: PREINCUBATION) “inactive; negative”; under setting [1], “inactive; negative”; (Test System: AMES SALMONELLA TYPHIMURIUM, Strain/Indicator: TA98, Metabolic Activation: RAT, LIVER, S-9, AROCLOR 1254 (10 OR 30%), Method: PREINCUBATION) “inactive; negative”; under setting [2], “inactive; negative”; (Test System: AMES SALMONELLA TYPHIMURIUM, Strain/Indicator: TA100, Metabolic Activation: HAMSTER, LIVER, S-9, AROCLOR 1254 (10 OR 30%), Method: PREINCUBATION) “inactive; negative”; (Test System: AMES SALMONELLA TYPHIMURIUM, Strain/Indicator: TA100, Metabolic Activation: NONE, Method: PREINCUBATION) “inactive; negative”. For the same compound, the mutagenic call under setting [3] is “inactive; negative”; the mutagenic call (Test System: AMES SALMONELLA TYPHIMURIUM, Strain/Indicator: TA100, Metabolic Activation: RAT, LIVER, S-9, AROCLOR 1254 (2.5 OR 10%), Method: STANDARD PLATE) is “inactive; negative”; the mutagenic call (Test System: AMES SALMONELLA TYPHIMURIUM, Strain/Indicator: TA100, Metabolic Activation: RAT, LIVER, S-9, AROCLOR 1254 (10 OR 30%), Method: PREINCUBATION) is “inactive; negative”; the mutagenic call under setting [4] is “inactive; negative”; the mutagenic call (Test System: AMES SALMONELLA TYPHIMURIUM, Strain/Indicator: TA102, Metabolic Activation: NONE, Method: STANDARD PLATE) was “inactive; negative”; the mutagenic call (Test System: AMES SALMONELLA TYPHIMURIUM, Strain/Indicator: TA102, Metabolic Activation: RAT, LIVER, S-9, AROCLOR 1254, Method: STANDARD PLATE) was “inactive; negative”. For the same compound, the mutagenic call runs as follows: (Test System: AMES SALMONELLA TYPHIMURIUM, Strain/Indicator: TA1535, Metabolic Activation: HAMSTER, LIVER, S-9, AROCLOR 1254 (10 OR 30%), Method: PREINCUBATION) “inactive; negative”; (Test System: AMES SALMONELLA TYPHIMURIUM, Strain/Indicator: TA1535, Metabolic Activation: NONE, Method: PREINCUBATION) “inactive; negative”; (Test System: AMES SALMONELLA TYPHIMURIUM, Strain/Indicator: TA1535, Metabolic Activation: RAT, LIVER, S-9, AROCLOR 1254 (10 OR 30%), Method: PREINCUBATION) “inactive; negative”; (Test System: AMES SALMONELLA TYPHIMURIUM, Strain/Indicator: TA1537, Metabolic Activation: HAMSTER, LIVER, S-9, AROCLOR 1254 (30%), Method: PREINCUBATION) “inactive; negative”; (Test System: AMES SALMONELLA TYPHIMURIUM, Strain/Indicator: TA1537, Metabolic Activation: NONE, Method: PREINCUBATION) “inactive; negative”; (Test System: AMES SALMONELLA TYPHIMURIUM, Strain/Indicator: TA1537, Metabolic Activation: RAT, LIVER, S-9, AROCLOR 1254 (30%), Method: PREINCUBATION) “inactive; negative”. Besides, the mutagenic call runs as follows: (Test System: CHINESE HAMSTER OVARY, Strain/Indicator: CHO-AS52/6-THIOGUANINE, Metabolic Activation: NONE) “inactive; negative”; (Test System: CHINESE HAMSTER V-79, Strain/Indicator: V-79 (HPRT)/6-THIOGUANINE, Metabolic Activation: NONE) “active; positive”; under setting [5], “inactive; negative”; (Test System: E. COLI, Strain/Indicator: WP2 UVRA, Metabolic Activation: RAT, LIVER, S-9, AROCLOR 1254 (2.5 OR 10%), Method: STANDARD PLATE) “inactive; negative”.
